From patent publication US8299023B2, “Neuropeptide-2 receptor (Y-2R) agonists” (Hoffmann-La Roche Inc., priority 2008, dated 2012)

Assays:
Y1R = target: T1, Y1R (Homo sapiens, UniProt P25929); experiment: Ca flux assay (FLIPR), Y1R; format: cell-based
T1 sequence (P25929 1-384): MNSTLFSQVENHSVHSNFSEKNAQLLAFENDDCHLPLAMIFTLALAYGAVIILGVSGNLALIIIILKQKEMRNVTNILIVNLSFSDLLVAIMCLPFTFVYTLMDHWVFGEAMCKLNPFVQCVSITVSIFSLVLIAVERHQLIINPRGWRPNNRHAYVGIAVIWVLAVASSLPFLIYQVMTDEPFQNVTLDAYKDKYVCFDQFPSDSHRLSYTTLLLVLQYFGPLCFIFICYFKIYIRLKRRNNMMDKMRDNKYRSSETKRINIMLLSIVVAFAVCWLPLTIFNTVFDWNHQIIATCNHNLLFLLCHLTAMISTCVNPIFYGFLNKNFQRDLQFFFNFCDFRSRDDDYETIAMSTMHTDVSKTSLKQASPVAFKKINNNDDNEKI

Y4R = Y4R (Homo sapiens, UniProt P50391); experiment: Ca flux assay (FLIPR), Y4R; format: cell-based
Y5R = target: T2, Y5R (Homo sapiens, UniProt Q15761); experiment: Ca flux assay (FLIPR), Y5R; format: cell-based; conditions: for Emax: read-out: Y5R FLIPR, percentage in brackets beside the EC50
T2 sequence (Q15761 1-445): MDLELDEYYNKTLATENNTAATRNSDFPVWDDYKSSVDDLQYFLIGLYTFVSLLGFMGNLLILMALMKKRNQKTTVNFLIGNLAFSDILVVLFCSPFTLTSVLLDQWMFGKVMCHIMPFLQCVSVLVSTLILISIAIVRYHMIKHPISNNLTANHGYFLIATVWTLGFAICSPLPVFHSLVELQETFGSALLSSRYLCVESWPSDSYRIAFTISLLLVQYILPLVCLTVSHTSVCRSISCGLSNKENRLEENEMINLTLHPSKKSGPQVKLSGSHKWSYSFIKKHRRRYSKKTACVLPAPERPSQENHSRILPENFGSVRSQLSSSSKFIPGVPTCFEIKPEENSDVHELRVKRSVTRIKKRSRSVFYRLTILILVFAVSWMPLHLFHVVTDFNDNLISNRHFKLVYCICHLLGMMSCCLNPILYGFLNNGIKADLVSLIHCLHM

hypothalamic slices = hypothalamic slices in vitro; cited from earlier work
human NPY2-receptors = target: T3, human NPY2-receptors (Homo sapiens, UniProt P49146); experiment: cAMP agonist assay, Y2R; format: cell-based
T3 construct: expressed in transfected cells; host or cells: HEK293 (G418 selection in the medium)
T3 sequence (P49146 1-381): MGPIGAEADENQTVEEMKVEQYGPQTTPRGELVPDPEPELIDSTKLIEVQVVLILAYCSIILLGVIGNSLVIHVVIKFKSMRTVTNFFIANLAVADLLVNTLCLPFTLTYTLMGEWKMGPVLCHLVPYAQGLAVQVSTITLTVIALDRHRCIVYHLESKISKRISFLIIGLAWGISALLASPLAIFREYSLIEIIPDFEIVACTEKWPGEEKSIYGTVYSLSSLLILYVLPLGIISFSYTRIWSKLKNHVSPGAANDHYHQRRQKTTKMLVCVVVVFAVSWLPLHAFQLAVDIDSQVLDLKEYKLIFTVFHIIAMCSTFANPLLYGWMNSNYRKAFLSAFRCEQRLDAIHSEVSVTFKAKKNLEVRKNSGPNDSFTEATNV
Experimental: HEK293 cells expressing human NPY2-receptors were plated in a 384-well plate at a density of 9000 cells/well using a Multi-drop dispenser and the plates were grown overnight at 37° C.
The media and reagents were warmed to room temperature. Before the dilutions were prepared, the stock solution of NPY2-receptor ligands and controls in dimethyl sulphoxide (DMSO, Sigma Cat. #D2650) was allowed to warm up to 32° C. for 5-10 min.
The plating media was removed by gentle inversion of the 384-well plate on a paper towel and was replaced with incubation medium (50 μ/L well) containing various concentrations of NPY2-receptor ligands (four replicates/concentration). The plates were incubated at room temperature for 30 min. Following the 30 min treatment period, the incubation media was discarded and replaced with 50 μL/well of Assay Lysis Buffer (provided in the Tropix kit). The cells were lysed by incubating plates for 45 min @ 37° C. The lysate (20 μl) was transferred into the pre-coated antibody plates (384-well) supplied in the Tropix kit. AP conjugate (10 μL) and of anti-cAMP antibody (20 μL) was added to each well and the plates incubated on a shaker at room temperature for 1 h. The plates were washed 5 times with Wash Buffer (70 μL/well/wash) and the plates tapped dry. […] The signal in each well was measured (1 sec/well) using a Luminometer (VICTOR-V).

Y4R, sequence (P50391 whole entry): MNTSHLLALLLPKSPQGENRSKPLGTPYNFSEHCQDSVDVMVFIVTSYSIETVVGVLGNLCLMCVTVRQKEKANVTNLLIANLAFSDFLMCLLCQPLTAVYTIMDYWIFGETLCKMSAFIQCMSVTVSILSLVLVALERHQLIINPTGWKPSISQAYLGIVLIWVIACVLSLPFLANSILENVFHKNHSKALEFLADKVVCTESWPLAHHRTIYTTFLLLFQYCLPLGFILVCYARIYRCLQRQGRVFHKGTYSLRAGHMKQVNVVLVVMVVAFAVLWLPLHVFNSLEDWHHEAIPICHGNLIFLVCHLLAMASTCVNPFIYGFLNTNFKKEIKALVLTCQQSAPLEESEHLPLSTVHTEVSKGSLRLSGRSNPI

Row | SMILES | EC50 (Y1R) | EC50 (Y4R) | EC50 (Y5R) | Emax (Y5R) | NPY release (hypothalamic slices) | EC50 (human NPY2-receptors)
1 | CC[C@H](C)[C@H](NC(C)=O)C(=O)N[C@@H](CCCCN)C(=O)N1CCN(c2ncc3c(ncn3CC(=O)N[C@@H](CCCNC(=N)N)C(=O)N[C@@H](Cc3c[nH]cn3)C(=O)N[C@@H](Cc3ccc(O)cc3)C(=O)N[C@@H](CC(C)C)C(=O)N[C@@H](CC(N)=O)C(=O)N[C@@H](Cc3c[nH]c4ccccc34)C(=O)N[C@H](C(=O)N[C@H](C(=O)N[C@@H](CCCNC(=N)N)C(=O)N[C@@H](CCC(N)=O)C(=O)N(C)[C@@H](CCCNC(=N)N)C(=O)N[C@@H](Cc3ccc(O)cc3)C(N)=O)[C@@H](C)O)C(C)C)n2)CC1 [Example 10] | > 5 µM | > 5 µM | 1.1 µM | 48% | – | –
2 | N=C(N)NCCC[C@H](NC(=O)CC1(CC(=O)N2CCN(C3c4ccccc4NC(=O)c4ccccc43)CC2)CCCC1)C(=O)NCCn1c(=O)n(-c2ccccc2)n(-c2ccccc2)c1=O (stereo partly shown) [BIIE0246] | – | – | – | – | increases NPY release | –
3 | CC[C@H](C)[C@H](NC(C)=O)C(=O)N[C@@H](CCCCN)C(=O)N1CCN(c2nc3ncn(CC(=O)N[C@@H](CCCNC(=N)N)C(=O)N[C@@H](Cc4c[nH]cn4)C(=O)N[C@@H](Cc4ccc(O)cc4)C(=O)N[C@@H](CC(C)C)C(=O)N[C@@H](CC(N)=O)C(=O)N[C@@H](Cc4c[nH]c5ccccc45)C(=O)N[C@H](C(=O)N[C@H](C(=O)N[C@@H](CCCNC(=N)N)C(=O)N[C@@H](CCC(N)=O)C(=O)N(C)[C@@H](CCCNC(=N)N)C(=O)N[C@@H](Cc4ccc(O)cc4)C(N)=O)[C@@H](C)O)C(C)C)c3c(=O)[nH]2)CC1 [Example 9] | > 9 µM | > 9 µM | > 9 µM | – | – | –
4 | CC[C@H](C)[C@H](NC(C)=O)C(=O)N[C@@H](CCCCN)C(=O)N1CC2CC1CC2c1ccc2ncn(CC(=O)N[C@@H](CCCNC(=N)N)C(=O)N[C@@H](Cc3c[nH]cn3)C(=O)N[C@@H](Cc3ccc(O)cc3)C(=O)N[C@@H](CC(C)C)C(=O)N[C@@H](CC(N)=O)C(=O)N[C@@H](Cc3c[nH]c4ccccc34)C(=O)N[C@H](C(=O)N[C@H](C(=O)N[C@@H](CCCNC(=N)N)C(=O)N[C@@H](CCC(N)=O)C(=O)N(C)[C@@H](CCCNC(=N)N)C(=O)N[C@@H](Cc3ccc(O)cc3)C(N)=O)[C@@H](C)O)C(C)C)c(=O)c2c1 (stereo partly shown) [Example 12] | > 5 µM | > 5 µM | 2.87 µM | 43% | – | –
5 | CC[C@H](C)[C@H](NC(C)=O)C(=O)N[C@@H](CCCCN)C(=O)N1CCCN(c2ccc3ncn(CC(=O)N[C@@H](CCCNC(=N)N)C(=O)N[C@@H](Cc4c[nH]cn4)C(=O)N[C@@H](Cc4ccc(O)cc4)C(=O)N[C@@H](CC(C)C)C(=O)N[C@@H](CC(N)=O)C(=O)N[C@@H](Cc4c[nH]c5ccccc45)C(=O)N[C@H](C(=O)N[C@H](C(=O)N[C@@H](CCCNC(=N)N)C(=O)N[C@@H](CCC(N)=O)C(=O)N(C)[C@@H](CCCNC(=N)N)C(=O)N[C@@H](Cc4ccc(O)cc4)C(N)=O)[C@@H](C)O)C(C)C)c(=O)c3c2)CC1 [Example 8] | > 9 µM | > 9 µM | 6.03 µM | – | – | –
6 | CC[C@H](C)[C@H](NC(C)=O)C(=O)N[C@@H](CCCCN)C(=O)N1CCN(c2nc(N)c3c(ncn3CC(=O)N[C@@H](CCCNC(=N)N)C(=O)N[C@@H](Cc3c[nH]cn3)C(=O)N[C@@H](Cc3ccc(O)cc3)C(=O)N[C@@H](CC(C)C)C(=O)N[C@@H](CC(N)=O)C(=O)N[C@@H](Cc3c[nH]c4ccccc34)C(=O)N[C@H](C(=O)N[C@H](C(=O)N[C@@H](CCCNC(=N)N)C(=O)N[C@@H](CCC(N)=O)C(=O)N(C)[C@@H](CCCNC(=N)N)C(=O)N[C@@H](Cc3ccc(O)cc3)C(N)=O)[C@@H](C)O)C(C)C)n2)CC1 [Example 11] | > 5 µM | > 5 µM | 3.3 µM | 39% | – | 0.00018 µM
7 | CC[C@H](C)[C@H](NC(C)=O)C(=O)N[C@@H](CCCCN)C(=O)N1CCN(c2ccc3c(ccn3CC(=O)N[C@@H](CCCNC(=N)N)C(=O)N[C@@H](Cc3c[nH]cn3)C(=O)N[C@@H](Cc3ccc(O)cc3)C(=O)N[C@@H](CC(C)C)C(=O)N[C@@H](CC(N)=O)C(=O)N[C@@H](Cc3c[nH]c4ccccc34)C(=O)N[C@H](C(=O)N[C@H](C(=O)N[C@@H](CCCNC(=N)N)C(=O)N[C@@H](CCC(N)=O)C(=O)N(C)[C@@H](CCCNC(=N)N)C(=O)N[C@@H](Cc3ccc(O)cc3)C(N)=O)[C@@H](C)O)C(C)C)c2)CC1 [Example 6] | > 30 µM | > 30 µM | 10.7 µM | – | – | –
8 | CC[C@H](C)[C@H](NC(C)=O)C(=O)N[C@@H](CCCCN)C(=O)NCc1ccc(-c2cccc(CC(=O)N[C@@H](CCCNC(=N)N)C(=O)N[C@@H](Cc3c[nH]cn3)C(=O)N[C@@H](Cc3ccc(O)cc3)C(=O)N[C@@H](CC(C)C)C(=O)N[C@@H](CC(N)=O)C(=O)N[C@@H](Cc3c[nH]c4ccccc34)C(=O)N[C@H](C(=O)N[C@H](C(=O)N[C@@H](CCCNC(=N)N)C(=O)N[C@@H](CCC(N)=O)C(=O)N(C)[C@@H](CCCNC(=N)N)C(=O)N[C@@H](Cc3ccc(O)cc3)C(N)=O)[C@@H](C)O)C(C)C)c2)cc1 [Example 5] | > 30 µM | > 30 µM | > 30 µM | – | – | –
9 | CC[C@H](C)[C@H](NC(C)=O)C(=O)N[C@@H](CCCCN)C(=O)N1CCN(c2ccc3ccn(CC(=O)N[C@@H](CCCNC(=N)N)C(=O)N[C@@H](Cc4c[nH]cn4)C(=O)N[C@@H](Cc4ccc(O)cc4)C(=O)N[C@@H](CC(C)C)C(=O)N[C@@H](CC(N)=O)C(=O)N[C@@H](Cc4c[nH]c5ccccc45)C(=O)N[C@H](C(=O)N[C@H](C(=O)N[C@@H](CCCNC(=N)N)C(=O)N[C@@H](CCC(N)=O)C(=O)N(C)[C@@H](CCCNC(=N)N)C(=O)N[C@@H](Cc4ccc(O)cc4)C(N)=O)[C@@H](C)O)C(C)C)c(=O)c3c2)CC1 [Example 13] | > 5 µM | > 5 µM | 2.34 µM | 49% | – | 0.00018 µM
